From paper PMC10961089, “Epidermal growth factor receptor inhibition potentiates chemotherapeutics‐mediated sensitization of metastatic breast cancer stem cells” (Cancer Reports, 2024) come the findings set out here.

The test system of one assay is MDA‐MB‐468. In words: MTT cytotoxicity assay in MDA-MB-468. The class given is cell-based, human. The procedure:
TNBC cell lines (ER^−, PR^−, HER2^−)—MDA‐MB‐231 (ATCC HTB‐26) and MDA‐MB‐468 (ATCC HTB‐132) were procured from ATCC and cultured in Roswell Park Memorial Institute Media (RPMI‐1640) and Dulbecco's Modified Eagle's Medium (DMEM), respectively, supplemented with 10% FBS and 1% Penicillin–Streptomycin solution. Cells were maintained at 5% CO2 at 37°C in a humid atmosphere.[6], [26] The control cell line, Human Embryonic Kidney—HEK‐293 (ATCC CRL‐3216) was also obtained from ATCC and cultured in DMEM.[5], [25]
To evaluate the cytotoxicity profile of the potential EGFR inhibitors (compounds) against TNBC cell lines—MDA‐MB‐231, MDA‐MB‐468, and control cell line HEK293, cells were seeded at a cell density of 5 × 10^3 cells/well in complete medium onto 96‐well plates. Here, the non‐tumoral human embryonic kidney (HEK293) epithelial cells have been utilized as a control cell line to compare the IC50 values of the compounds between cancerous and non‐cancerous cell lines with a big therapeutic window. The use of HEK293 cells as compared to other non‐cancerous cell lines are easy to maintain in culture and the results obtained from HEK293 are highly reproducible and consistent.[27] Briefly, the cells were incubated at 37°C for 12 h to attain morphology. After 12 h, cells were serum starved by replacing the complete media with media containing 2% FBS to synchronize the cells. Post‐12 h of synchronization, cells were treated with an increasing concentration (0.1, 1, 10, 100 μM) of all the compounds (1a, 1b, 1c, 1d, 1e, 1f, 1g, 1h, 1i, 1j, 1k). Separately, TNBC cells were treated with increasing concentration (0.01, 0.1, 1 μM) of Doxorubicin (Sigma‐Aldrich, St Louis, MO, USA) in presence of the selected compounds (1c, 1e, 1g, 1h, 1j, and 1k) at 5 μM concentration or combination of selected compounds (1c, 1e, 1g, 1h, 1j, and 1k) at increasing concentration (1, 2.5, 5, 10 μM) in presence of Doxorubicin (0.01 μM) for 48 h. In addition, the CD24^+‐breast cancer cells and CD24^−/CD44^+‐breast CSC populations, being sorted by Magnetic Activated Cell Sorting (MACS) from MDA‐MB‐231 cells as described previously,[6] were also treated with increasing concentrations of Doxorubicin (0.01–1 μM), in the presence or absence of 1e (10–30 μM), or PD153035 (10 μM) (Sigma‐Aldrich, St Louis, MO, USA). MTT assay was performed to evaluate the cytotoxicity of these compounds against the TNBC cell lines, and the sorted populations as described previously.[6] All the experiments were performed thrice and the IC50 values of the compounds and Doxorubicin were calculated using GraphPad Prism software version 9 (San Diego, CA, USA). Similarly, the percent inhibition of the sorted cell populations by chemotherapeutic drug, doxorubicin in the absence/presence of potent compound 1e or standard EGFR inhibitor, PD153035 was evaluated utilizing GraphPad Prism Version 9 (San Diego, CA, USA).
Background: Tetrazolium dyes change colour on reduction, which living cells bring about.

Assay [1] relates to CD24^+‐breast cancer cells sorted from MDA‐MB‐231. As to the kind of experiment: MTT assay in sorted breast cancer cells. The following applies: doxorubicin 0.01 μM + 1e 5 μM vs doxorubicin 0.01 μM alone. The format is cell-based, human. The procedure: To evaluate the cytotoxicity profile of the potential EGFR inhibitors (compounds) against TNBC cell lines—MDA‐MB‐231, MDA‐MB‐468, and control cell line HEK293, cells were seeded at a cell density of 5 × 10^3 cells/well in complete medium onto 96‐well plates. Here, the non‐tumoral human embryonic kidney (HEK293) epithelial cells have been utilized as a control cell line to compare the IC50 values of the compounds between cancerous and non‐cancerous cell lines with a big therapeutic window. The use of HEK293 cells as compared to other non‐cancerous cell lines are easy to maintain in culture and the results obtained from HEK293 are highly reproducible and consistent.[27] Briefly, the cells were incubated at 37°C for 12 h to attain morphology. After 12 h, cells were serum starved by replacing the complete media with media containing 2% FBS to synchronize the cells. […] All the experiments were performed thrice and the IC50 values of the compounds and Doxorubicin were calculated using GraphPad Prism software version 9 (San Diego, CA, USA). Similarly, the percent inhibition of the sorted cell populations by chemotherapeutic drug, doxorubicin in the absence/presence of potent compound 1e or standard EGFR inhibitor, PD153035 was evaluated utilizing GraphPad Prism Version 9 (San Diego, CA, USA).

Assay [2] relates to human CD44, ALDH1A1, Fibronectin, N‐Cadherin, Vimentin in tumor tissue. As to the kind of experiment: qRT-PCR of human CSC/EMT genes in tumor tissues. The format is in vivo, C57BL/6 mice. The procedure:
Additionally, total RNA was isolated from tumor tissues and utilized for cDNA synthesis (Thermo Scientific, Massachusetts, USA). To determine the transcriptional regulation of expression of EMT genes in tumor tissues subjected to various treatment regimes, quantitative real‐time PCR (qRT‐PCR) analysis was performed as described previously[28] using human gene‐specific forward and reverse primers of EMT genes. Amplification of Eukaryotic 18S rRNA served as an internal control and was utilized to calculate the fold change in expression.[29]
Animal studies have been carried out with the prior approval of the Institutional Animal Ethics Committee (IICT/IAEC/025/2023). C57BL/6 female mice of age 6–8 weeks (N = 35) were initially immunosuppressed with cyclophosphamide (50 mg/kg of body weight, i.p) on alternate days for 2 weeks. For generating a preclinical orthotopic xenograft tumor model, 2 × 10^6 GFP expressing sorted stable CD24^+‐breast cancer cells and CD24^−/CD44^+‐breast CSCs were orthotopically xeno‐transplanted subcutaneously at the fourth mammary fat pad of immune‐suppressed mice (n = 5/group). Subsequently, intratumoral administration of Doxorubicin at a low dose (2.5 mg/kg of body weight), high dose (10 mg/kg of body weight), and/or combinatorial treatment of the potent EGFR inhibitor, compound 1e (50 mg/kg of body weight) or the commercial EGFR inhibitor, PD153035 (50 mg/kg of body weight) with a low dose of doxorubicin was performed to the palpable tumors of breast CSCs at day‐3 post‐transplantation.
A general note: In qPCR the cycle at which signal appears reflects the starting amount.

Usually IC50 stands for the concentration needed to halve the response being measured. On to `c1cncc(C(c2c[nH]c3ccccc23)c2c[nH]c3ccccc23)c1` [1e], for which the “decrease in the IC50 of Doxorubicin in the presence of the compound” value in the assay on MDA‐MB‐468 (MDA-MB-468, versus Doxorubicin alone) stood at 10 fold. The IC50 with MDA‐MB‐468 (compound alone, MTT, 48 h, read-out: IC50 (μM) in MDA‐MB‐468 (mean ± SD)) came to 36 ± 5.91 µM. Further, the “increase of percent inhibition of cell proliferation versus doxorubicin alone” value in assay [1] is recorded as 1.8 folds. Moreover, the “expression level of human CD44 in tumor tissue” value in assay [2] (with doxorubicin low dose vs low dose doxorubicin alone) is reported as “significantly decreased”. Also, the “expression of human mesenchymal genes ALDH1A1, Fibronectin, N‐Cadherin, Vimentin” value in assay [2] (with low dose of doxorubicin, CSC xenograft) was “significantly decreased”.
